Reference: the NIST ThermoML archive (doi:10.1021/je400498a)
Numbers after ± are expanded uncertainties.

Columns and labels:
[1] = for vapor or sublimation pressure: 298.15 K, Gas chromatography
[2] = Molar enthalpy of transition or fusion; conditions: Crystal; DSC

Row | SMILES | vapor or sublimation pressure ([1]; Liquid) | vapor or sublimation pressure ([1]; Crystal) | Normal melting temperature ([1]; Crystal, DTA) | Molar enthalpy of transition or fusion [2]
1 | CC(N)C12CC3CC(CC(C3)C1)C2 (centres undefined) [1-(adamantan-1-yl)ethan-1-amine] | 0.003 ± 0.002 kPa |  |  | 
2 | CCCCCCCCCCCCCCN [1-tetradecanamine] |  | 0.00012 ± 8e-05 kPa |  | 
3 | N[C@@H]1C[C@H]1c1ccccc1 (relative stereo) [trans-2-phenylcyclopropylamine] | 0.028 ± 0.01 kPa |  |  | 
4 | CC(C)(N)Cc1ccccc1 [2-methyl-1-phenylpropan-2-amine] | 0.035 ± 0.008 kPa |  |  | 
5 | CCCCCCCCCCCCN [1-dodecanamine] |  | 0.0016 ± 0.0002 kPa |  | 
6 | NC12CC3CC(CC(C3)C1)C2 [tricyclo(3.3.1.1:3,7)decan-1-amine] | 0.021 ± 0.003 kPa | 0.0115 ± 0.0043 kPa | 204.2 ± 1.8 °C | 1.74 ± 0.12 kcal/mol
